The values that follow come from patent publication US20150133467A1, “SCREENING METHOD, PROTEIN INSTABILITY AND/OR STABILITY INDUCERS, AND PROTEIN ACTIVITY ASSESSMENT” (KYOTO UNIVERSITY, priority 2012, published 2015).

The test system of series [1] is EGFP-TAU protein. Kind of series: Screening with mCherry-2A-EGFP-TAU assay cells, Western blot analysis. The class given is cell-based, human. From the text: An assay cell having the simultaneous expression system of EGFP-fused TAU and mCherry (mCherry-2A-EGFP-TAU) as shown in the model diagram of FIG. 5 was produced. Specifically, the process was as follows. EGFP was fused with TAU (EGFP-TAU), and further, it was connected in-frame by using 2A peptide and mCherry gene that codes a red fluorescent protein (mCherry-2A-EGFP-TAU). The 2A peptide is an amino acid sequence enabling a bicistronic gene expression. Thereby, mCherry-2A-EGFP-TAU is translated simultaneously from the top of a single mRNA. A vector expressing the gene (mCherry-2A-EGFP-TAU) was produced in the following manner.
(In general: In western blotting, separated proteins are transferred to a membrane and probed.)

The target in series [2] is T1, FLAGx3-DYRK1A protein (Homo sapiens, UniProt Q13627).
T1 construct: 2A peptide (what is left of it after self-cleavage) (C); expressed in transfected cells
The series is described as follows: Screening with FLAGx3-DYRK1A-2A-HAx3-EGFP assay cells, Western blotting. The class given is cell-based. Particulars: Western blot; for amount of intracellular DYRK1A protein: concentration of 4 μm, FIG. 8; for amount of FLAGx3-DYRK1A (FLAG-DYRK1A) protein within the cells: FIGS. 9-12, constant concentration not stated. As for the experimental part:
Cultured cells with expressed FLAGx3-DYRK1A-2A-HAx3-EGFP (assay cells) were cultured on a plate, and test compounds of a constant concentration were added to the culture solution for a further cultivation. After the cultivation, the amounts of FLAGx3-DYRK1A, HAx3-EGFP, and GAPDH were quantitatively analyzed by a Western blotting method, and the ratio was analyzed.
After the cultivation, the amounts of FLAGx3-DYRK1A, HAx3-EGFP, and GAPDH were quantitatively analyzed by a Western blotting method, and the ratio was analyzed.
After the cultivation, the respective amounts of FLAGx3-DYRK1A, HAx3-EGFP, and GAPDH were quantitatively analyzed by a Western blotting method, and the ratio was analyzed.

In series [3] the target is T2, DYRK1A (Rattus norvegicus, UniProt Q63470).
T2 construct: from tissue; host or cells: living rat (whole animal); blood plasma analysed for homocysteine
Kind of series: Monitoring of DYRK1A activity inhibition using homocysteine in blood as index. The class given is in vivo. The note with it: rats, oral, 18 mg/kg, FIG. 7. The procedure: DYRK1A inhibitor Harmine was orally administered to rats, and the post-administration homocysteine concentration in blood was measured. The specific conditions are as follows, and the results are illustrated in FIG. 7.
After dissolving the DYRK1A inhibitor Harmine in an administration solvent of 0.9% NaCl, about 1 ml per individual was orally administered (final administration concentration: 18 mg/kg). At certain interval after the administration, the blood was collected from caudate veins. From the blood, blood plasma was separated and preserved in the presence of EDTA-2Na. Analysis of the homocysteine concentration in the blood plasma was consigned to SRL. Specifically, the measurement was conducted by extracting fractures including homocysteine from the blood plasma and then analyzing the amount of homocysteine included in the extract by HPLC (see Araki A et al: Journal of Chromatography 422, 43-52 1987, Araki A: Gendai-Iryou 22, 10, 2544-2549 1990).

Each structure is given as a SMILES string.

What is called melting point is the temperature of the solid-liquid transition. For `Fc1ccc(N2CCN(c3ccccc3)CC2)c(NC(=S)c2ccncc2)c1` [Compound 2, N-[5-fluoro-2-(4-phenyl-1-piperazinyl)phenyl]isonicotinthioamide], the melting point fell in the range of 183 to 186 °C. For the same compound, in series [1], the “effect on stability of TAU protein” value was “make TAU protein unstable and allow the protein to decompose”; the “effect on transcription and translation of TAU” value is “not to affect at all”. In series [1] (Western blot, FIG. 6), the “amount of the EGFP-TAU protein within the cells” value is recorded as “reduces only the amount of the EGFP-TAU protein” and the “amount of the internal standard mCherry protein” value is reported as “does not affect”.
Regarding `COc1ccc(/C=C2\SC(=S)NC2=O)cc1C#CC1CCCCC1` [Compound 3, (Z)-5-(3-(cyclohexylethynyl)-4-methoxybenzylidene)-2-thioxothiazolidin-4-one], the melting point is 185 to 186 °C. Moreover, the “amount of intracellular DYRK1A protein” value in series [2] is reported as “capable of reducing”.
Take `COc1ccc(/C=C2\SC(=S)NC2=O)cc1C#CC1C2CC3CC(C2)CC1C3` (stereo not drawn) [Compound 4, (Z)-5-(3-(2-adamantylethynyl)-4-methoxybenzylidene)-2-thioxothiazolidin-4-one]: the melting point fell in the range of 266 to 267 °C. For the same compound, the “amount of intracellular DYRK1A protein” value in series [2] is listed as “capable of reducing”.
`COc1ccc(/C=C2\SC(=S)NC2=O)cc1-c1cccc(C)c1` [Compound 5] registered a melting point of 204 to 205 °C. In addition, in series [2], the “amount of intracellular DYRK1A protein” value is listed as “capable of reducing”.
As to `COc1ccc(/C=C2\SC(=S)NC2=O)cc1-c1cc(C(F)(F)F)cc(C(F)(F)F)c1` [Compound 6, (Z)-5-(3,5-bis(trifluoromethyl)phenyl-4-methoxybenzylidene)-2-thioxothiazolidin-4-one], the melting point was in the range of 244 to 245 °C.
`COc1ccc(/C=C2\SC(=S)NC2=O)cc1-c1cccc(C(F)(F)F)c1` [Compound 7, (Z)-5-(3-(trifluoromethyl)phenyl-4-methoxybenzylidene)-2-thioxothiazolidin-4-one]: the melting point fell in the range of 209 to 210 °C.
Compound `COc1ccc(/C=C2\SC(=S)NC2=O)cc1-c1cc(C)cc(C)c1` [Compound 8, (Z)-5-(3,5-dimethylphenyl-4-methoxybenzylidene)-2-thioxothiazolidin-4-one] had a melting point of 238 to 239 °C.
`COc1ccc2c([nH]c3c(C)nccc32)c1C#C[Si](C)(C)C` [Compound 9, 8-[2-(trimethylsilyl)ethynyl]harmine] returned a melting point of 185 to 186 °C. The “amount of FLAGx3-DYRK1A (FLAG-DYRK1A) protein within the cells” value in series [2] was “reduces only the amount of the FLAG-DYRK1A protein”. The “amount of the internal standard EGFP protein” value in series [2] (FIGS. 10-11) was “does not affect”.
Consider `COc1ccc2c([nH]c3c(C)nccc32)c1C#CC1CCCCC1` [Compound 10, 8-[2-(cyclohexyl)ethynyl]harmine], for which the melting point was 198 to 199 °C. Besides, the “amount of FLAGx3-DYRK1A (FLAG-DYRK1A) protein within the cells” value in series [2] is recorded as “reduces the FLAGx3-DYRK1A protein”.
On to `COc1ccc2c(c1)[nH]c1c(C)nccc12` [Harmine], for which the homocysteine in blood result in series [3] (after two hours from administration) is reported as “raised rapidly”. In addition, the “homocysteine in blood compared with controls” value in series [3] (for 5 hours) is listed as “higher numerical values in comparison with controls”.
